Laboratory results from PubChem BioAssay (NCI).
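Method: 48-hour compound exposure of cells in 96-well plates, five concentrations, linear interpolation of endpoints. TGI: concentration producing complete growth inhibition.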

Legend:
Test in all cases: growth of human tumour cells (NCI), 48 h
[1] = test system: SW-620 colon
[2] = test system: CAKI-1 renal
[3] = test system: CCRF-CEM leukemia
[4] = test system: SK-MEL-28 melanoma
[5] = test system: ACHN renal
[6] = test system: PC-3 prostate
[7] = test system: KM12 colon
[8] = test system: HCC-2998 colon
[9] = test system: EKVX NSCLC
[10] = test system: M14 melanoma
[11] = test system: BT-549 breast
[12] = test system: MOLT-4 leukemia
[13] = test system: HCT-15 colon
[14] = test system: OVCAR-8 ovarian
[15] = test system: MDA-N
[16] = test system: MCF7 breast
[17] = test system: 786-0 renal
[18] = test system: NCI-H226 lung
[19] = test system: NCI-H460 lung
[20] = test system: UO-31 renal
[21] = test system: HS 578T breast
[22] = test system: RXF 393 renal
[23] = test system: OVCAR-3 ovarian
[24] = test system: SN12C renal
[25] = test system: UACC-257 melanoma
[26] = test system: HCT-116 colon
[27] = test system: A549 NSCLC
[28] = test system: SNB-75 CNS
[29] = test system: K-562 leukemia
[30] = test system: SK-MEL-5 melanoma
[31] = test system: T-47D breast
[32] = test system: NCI/ADR-RES ovarian
[33] = test system: SK-MEL-2 melanoma
[34] = test system: DU-145 prostate
[35] = test system: RPMI-8226 leukemia
[36] = test system: NCI-H23 lung
[37] = test system: HL-60(TB) leukemia
[38] = test system: HT29 colon
[39] = test system: MALME-3M melanoma
[40] = test system: SNB-19 CNS
[41] = test system: SF-268 CNS
[42] = test system: OVCAR-4 ovarian
[43] = test system: SK-OV-3 ovarian
[44] = test system: U251 CNS
[45] = test system: MDA-MB-435
[46] = test system: MDA-MB-231 breast
[47] = test system: SF-539 CNS
[48] = test system: COLO 205 colon
[49] = test system: UACC-62 melanoma
[50] = test system: NCI-H522 lung
[51] = test system: TK-10 renal
[52] = test system: IGROV1 ovarian
[53] = test system: OVCAR-5 ovarian
[54] = test system: SF-295 CNS
[55] = test system: SR leukemia
[56] = test system: HOP-92 NSCLC
[57] = test system: HOP-62 NSCLC
[58] = test system: LOX IMVI melanoma
[59] = test system: A498 renal

With N#Cc1c(N)c2c(c(-c3ccccc3)c1-c1ccccc1)C(=O)N(N)C2=O the TGI [1] was over 100 µM, the TGI [2] was over 100 µM and the TGI [3] was over 100 µM. It also gave a TGI [4] of over 100 µM, a TGI [5] of over 100 µM and a TGI [6] of over 100 µM. For the same molecule, the TGI [7] was over 100 µM, the TGI [8] was over 100 µM and the TGI [9] was over 100 µM. The TGI [10] was over 100 µM, the TGI [11] was over 100 µM and the TGI [12] was over 100 µM. For the same molecule, the TGI [13] was over 100 µM, the TGI [14] was over 100 µM and the TGI [15] was over 100 µM. The TGI [16] was over 100 µM, the TGI [17] was over 100 µM and the TGI [18] was over 100 µM. It also gave a TGI [19] of over 100 µM, a TGI [20] of over 100 µM and a TGI [21] of over 100 µM. The TGI [22] was over 100 µM, the TGI [23] was over 100 µM and the TGI [24] was over 100 µM. The TGI [25] was over 100 µM, the TGI [26] was over 100 µM and the TGI [27] was over 100 µM. For the same molecule, the TGI [28] was over 100 µM, the TGI [29] was over 100 µM and the TGI [30] was over 100 µM. For the same molecule, the TGI [31] was over 100 µM, the TGI [32] was over 100 µM and the TGI [33] was over 100 µM. It also gave a TGI [34] of over 100 µM, a TGI [35] of over 100 µM and a TGI [36] of over 100 µM. It also gave a TGI [37] of over 100 µM, a TGI [38] of over 100 µM and a TGI [39] of over 100 µM. For the same molecule, the TGI [40] was over 100 µM, the TGI [41] was over 100 µM and the TGI [42] was over 100 µM. It also gave a TGI [43] of over 100 µM, a TGI [44] of over 100 µM and a TGI [45] of over 100 µM. For the same molecule, the TGI [46] was over 100 µM, the TGI [47] was over 100 µM and the TGI [48] was over 100 µM. For the same molecule, the TGI [49] was over 100 µM, the TGI [50] was over 100 µM and the TGI [51] was over 100 µM. It also gave a TGI [52] of over 100 µM, a TGI [53] of over 100 µM and a TGI [54] of over 100 µM. The TGI [55] was over 100 µM and the TGI [56] was over 100 µM.
For COc1cc(C(=O)O)ccc1OS(=O)(=O)O, the TGI [1] was over 100 µM, the TGI [2] was over 100 µM and the TGI [3] was over 100 µM. For the same molecule, the TGI [4] was over 100 µM, the TGI [5] was over 100 µM and the TGI [6] was over 100 µM. The TGI [7] was over 100 µM, the TGI [8] was over 100 µM and the TGI [57] was over 100 µM. The TGI [9] was over 100 µM, the TGI [10] was over 100 µM and the TGI [11] was over 100 µM. It also gave a TGI [12] of over 100 µM, a TGI [13] of over 100 µM and a TGI [14] of over 100 µM. The TGI [15] was over 100 µM, the TGI [16] was over 100 µM and the TGI [17] was over 100 µM. The TGI [18] was over 100 µM, the TGI [19] was over 100 µM and the TGI [20] was over 100 µM. For the same molecule, the TGI [21] was over 100 µM, the TGI [22] was over 100 µM and the TGI [23] was over 100 µM. It also gave a TGI [24] of over 100 µM, a TGI [25] of over 100 µM and a TGI [26] of over 100 µM. For the same molecule, the TGI [27] was over 100 µM, the TGI [28] was over 100 µM and the TGI [29] was over 100 µM. The TGI [30] was over 100 µM, the TGI [31] was over 100 µM and the TGI [32] was over 100 µM. For the same molecule, the TGI [33] was over 100 µM, the TGI [34] was over 100 µM and the TGI [35] was over 100 µM. It also gave a TGI [36] of over 100 µM, a TGI [37] of over 100 µM and a TGI [38] of over 100 µM. It also gave a TGI [39] of over 100 µM, a TGI [40] of over 100 µM and a TGI [41] of over 100 µM. The TGI [58] was over 100 µM, the TGI [42] was over 100 µM and the TGI [43] was over 100 µM. It also gave a TGI [44] of over 100 µM, a TGI [45] of over 100 µM and a TGI [46] of over 100 µM. The TGI [47] was over 100 µM, the TGI [48] was over 100 µM and the TGI [49] was over 100 µM. It also gave a TGI [50] of over 100 µM, a TGI [51] of over 100 µM and a TGI [52] of over 100 µM. It also gave a TGI [53] of over 100 µM, a TGI [54] of over 100 µM and a TGI [55] of over 100 µM. The TGI [56] was over 100 µM.
Work on Clc1cc(OC23CC4CC(CC(C4)C2)C3)nc(Cl)n1 yielded a TGI [1] of over 100 µM, a TGI [3] of 86.2 µM and a TGI [4] of over 100 µM. It also gave a TGI [5] of over 100 µM, a TGI [6] of over 100 µM and a TGI [7] of over 100 µM. For the same molecule, the TGI [8] was 29.6 µM, the TGI [57] was over 100 µM and the TGI [9] was over 100 µM. It also gave a TGI [10] of over 100 µM, a TGI [11] of over 100 µM and a TGI [12] of over 100 µM. For the same molecule, the TGI [13] was over 100 µM, the TGI [14] was over 100 µM and the TGI [15] was over 100 µM. The TGI [16] was over 100 µM, the TGI [59] was over 100 µM and the TGI [17] was over 100 µM. The TGI [19] was over 100 µM, the TGI [20] was 87.5 µM and the TGI [21] was 54.3 µM. For the same molecule, the TGI [22] was 85.8 µM, the TGI [23] was over 100 µM and the TGI [24] was over 100 µM. For the same molecule, the TGI [25] was over 100 µM, the TGI [26] was over 100 µM and the TGI [27] was over 100 µM. The TGI [28] was over 100 µM, the TGI [29] was over 100 µM and the TGI [30] was over 100 µM. It also gave a TGI [31] of over 100 µM, a TGI [32] of over 100 µM and a TGI [33] of over 100 µM. For the same molecule, the TGI [34] was over 100 µM, the TGI [35] was over 100 µM and the TGI [36] was over 100 µM. The TGI [37] was 29.7 µM, the TGI [38] was over 100 µM and the TGI [39] was over 100 µM. For the same molecule, the TGI [40] was over 100 µM, the TGI [41] was over 100 µM and the TGI [58] was 36.1 µM. The TGI [42] was over 100 µM, the TGI [43] was over 100 µM and the TGI [44] was over 100 µM. For the same molecule, the TGI [45] was over 100 µM, the TGI [46] was over 100 µM and the TGI [47] was over 100 µM. It also gave a TGI [48] of over 100 µM, a TGI [49] of over 100 µM and a TGI [50] of over 100 µM. The TGI [51] was over 100 µM, the TGI [52] was over 100 µM and the TGI [53] was over 100 µM. It also gave a TGI [54] of over 100 µM, a TGI [55] of 48.4 µM and a TGI [56] of 3.5 µM.
Molecule Cc1ccccc1OC(C)C(=O)NN1C(=O)CC(=O)NC1=S (centres undefined) has a TGI [1] of over 100 µM, a TGI [2] of over 100 µM and a TGI [4] of over 100 µM. The TGI [5] was over 100 µM, the TGI [6] was over 100 µM and the TGI [7] was over 100 µM. For the same molecule, the TGI [8] was over 100 µM, the TGI [57] was over 100 µM and the TGI [9] was over 100 µM. For the same molecule, the TGI [10] was over 100 µM, the TGI [11] was over 100 µM and the TGI [12] was over 100 µM. It also gave a TGI [13] of over 100 µM, a TGI [14] of over 100 µM and a TGI [15] of over 100 µM. For the same molecule, the TGI [16] was over 100 µM, the TGI [59] was over 100 µM and the TGI [17] was over 100 µM. The TGI [18] was over 100 µM, the TGI [19] was over 100 µM and the TGI [20] was over 100 µM. The TGI [21] was over 100 µM, the TGI [22] was over 100 µM and the TGI [23] was over 100 µM. It also gave a TGI [24] of over 100 µM, a TGI [25] of over 100 µM and a TGI [26] of over 100 µM. For the same molecule, the TGI [27] was over 100 µM, the TGI [28] was over 100 µM and the TGI [29] was over 100 µM. For the same molecule, the TGI [30] was over 100 µM, the TGI [31] was over 100 µM and the TGI [32] was over 100 µM. It also gave a TGI [33] of over 100 µM, a TGI [34] of over 100 µM and a TGI [35] of over 100 µM. The TGI [36] was over 100 µM, the TGI [37] was over 100 µM and the TGI [38] was over 100 µM. For the same molecule, the TGI [39] was over 100 µM, the TGI [40] was over 100 µM and the TGI [41] was over 100 µM. For the same molecule, the TGI [58] was over 100 µM, the TGI [42] was over 100 µM and the TGI [43] was over 100 µM. For the same molecule, the TGI [44] was over 100 µM, the TGI [45] was over 100 µM and the TGI [46] was over 100 µM. For the same molecule, the TGI [47] was over 100 µM, the TGI [48] was over 100 µM and the TGI [49] was over 100 µM. For the same molecule, the TGI [50] was over 100 µM, the TGI [51] was over 100 µM and the TGI [52] was over 100 µM. It also gave a TGI [53] of over 100 µM, a TGI [54] of over 100 µM and a TGI [55] of over 100 µM. The TGI [56] was over 100 µM.
